In ChEMBL document CHEMBL4339208, “6-Bromoindolglyoxylamido derivatives as antimicrobial agents and antibiotic enhancers” (Bioorg Med Chem, 2019):
≈ marks a conversion by molar mass, not a printed value. Calls of active or inactive are those of the source. The calls are words filed in the database; no cut-off is given here.

Tests used:
Acinetobacter baumannii [1] = assay: Antibacterial activity against Acinetobacter baumannii ATCC 19606 measured after 18 hrs by resazurin dye based assay; assay type: functional; details: ATCC 19606 = CIP 70.34 = JCM 6841, 18 h
Pseudomonas aeruginosa [2] = assay: Potentiation of doxycycline-induced antibacterial activity against Pseudomonas aeruginosa ATCC 27853 assessed as concentration required to restore 2 ug/ml doxycycline activity measured after 18 hrs; assay type: functional
Klebsiella pneumoniae [3] = assay: Antibacterial activity against Klebsiella pneumoniae ATCC 700603 measured after 18 hrs by resazurin dye based assay; assay type: functional; details: Klebsiella pneumoniae, 700603, 18 h
[4] = (§1) Cytotoxicity against HEK293 cells measured after 20 hrs by resazurin dye based fluorescence assay; assay type: cell-based, Homo sapiens; details: human, HEK293 cells
Cryptococcus neoformans [5] = assay: Antifungal activity against Cryptococcus neoformans ATCC 208821 measured after 36 hrs by resazurin dye based assay; assay type: functional; details: ATCC 208821, 36 h
Pseudomonas aeruginosa [6] = assay: Antibacterial activity against Pseudomonas aeruginosa ATCC 27853 measured after 18 hrs by broth dilution method; assay type: functional; details: ATCC 27853, 18 h
Acinetobacter baumannii [7] = assay: Antibacterial activity against Acinetobacter baumannii ATCC 19606 at 32 ug/ml measured after 18 hrs by resazurin dye based assay; assay type: functional, organism-based; details: ATCC 19606 = CIP 70.34 = JCM 6841
Klebsiella pneumoniae [8] = assay: Antibacterial activity against Klebsiella pneumoniae ATCC 700603 at 32 ug/ml measured after 18 hrs by resazurin dye based assay; assay type: functional, organism-based
Candida albicans [9] = assay: Antifungal activity against Candida albicans ATCC 90028 measured after 36 hrs; assay type: functional; details: ATCC 90028, 36 h
Erythrocyte [10] = assay: Hemolytic activity against human RBC at 32 ug/ml incubated for 10 mins under shaking condition measured after 1 hr; assay type: ADME, cell-based
Staphylococcus aureus [11] = assay: Antibacterial activity against Staphylococcus aureus ATCC 25923 measured after 18 hrs by broth dilution method; assay type: functional; details: ATCC 25923, 18 h
L6 = assay: Cytotoxicity against rat L6 cells measured after 72 hrs by alamar blue assay; assay type: cell-based; details: L6, 72 h
Escherichia coli [12] = assay: Antibacterial activity against Escherichia coli ATCC 25922 measured after 18 hrs by broth dilution method; assay type: functional; details: ATCC 25922, 18 h
Erythrocyte [13] = assay: Hemolytic activity against human RBC incubated for 10 mins under shaking condition measured after 1 hr; assay type: ADME, cell-based
Cryptococcus neoformans [14] = assay: Antifungal activity against Cryptococcus neoformans ATCC 208821 at 32 ug/ml measured after 36 hrs by resazurin dye based assay; assay type: functional, organism-based
HEK293 = assay: as §1; assay type: cell-based, Homo sapiens; details: Homo sapiens, HEK293, 20 h
[15] = tested on: Staphylococcus intermedius; assay: Antibacterial activity against Staphylococcus intermedius 1051997 measured after 18 hrs by broth dilution method; assay type: functional; details: Staphylococcus intermedius, 1051997, 18 h
Candida albicans [16] = assay: Antifungal activity against Candida albicans ATCC 90028 at 32 ug/ml measured after 36 hrs; assay type: functional, organism-based
Klebsiella pneumoniae [17] = assay: Potentiation of erythromycin-induced antibacterial activity against Klebsiella pneumoniae ATCC 700603 assessed as concentration required to restore 2 ug/ml erythromycin activity measured after 18 hrs; assay type: functional
Escherichia coli [18] = assay: Potentiation of erythromycin-induced antibacterial activity against Escherichia coli ATCC 25922 assessed as concentration required to restore 2 ug/ml erythromycin activity measured after 18 hrs; assay type: functional
Pseudomonas aeruginosa [19] = assay: Potentiation of erythromycin-induced antibacterial activity against Pseudomonas aeruginosa ATCC 27853 assessed as concentration required to restore 2 ug/ml erythromycin activity measured after 18 hrs; assay type: functional
Acinetobacter baumannii [20] = assay: Potentiation of erythromycin-induced antibacterial activity against Acinetobacter baumannii ATCC 19606 assessed as concentration required to restore 2 ug/ml erythromycin activity measured after 18 hrs; assay type: functional, ATCC 19606 = CIP 70.34 = JCM 6841
Klebsiella pneumoniae [21] = assay: Potentiation of nalidixic acid-induced antibacterial activity against Klebsiella pneumoniae ATCC 700603 assessed as concentration required to restore 2 ug/ml nalidixic acid activity measured after 18 hrs; assay type: functional
Pseudomonas aeruginosa [22] = assay: Potentiation of nalidixic acid-induced antibacterial activity against Pseudomonas aeruginosa ATCC 27853 assessed as concentration required to restore 2 ug/ml nalidixic acid activity measured after 18 hrs; assay type: functional
Escherichia coli [23] = assay: Potentiation of nalidixic acid-induced antibacterial activity against Escherichia coli ATCC 25922 assessed as concentration required to restore 2 ug/ml nalidixic acid activity measured after 18 hrs; assay type: functional
Acinetobacter baumannii [24] = assay: Potentiation of nalidixic acid-induced antibacterial activity against Acinetobacter baumannii ATCC 19606 assessed as concentration required to restore 2 ug/ml nalidixic acid activity measured after 18 hrs; assay type: functional, ATCC 19606 = CIP 70.34 = JCM 6841
Klebsiella pneumoniae [25] = assay: Potentiation of chloramphenicol-induced antibacterial activity against Klebsiella pneumoniae ATCC 700603 assessed as concentration required to restore 2 ug/ml chloramphenicol activity measured after 18 hrs; assay type: functional
Acinetobacter baumannii [26] = assay: Potentiation of chloramphenicol-induced antibacterial activity against Acinetobacter baumannii ATCC 19606 assessed as concentration required to restore 2 ug/ml chloramphenicol activity measured after 18 hrs; assay type: functional, ATCC 19606 = CIP 70.34 = JCM 6841
Pseudomonas aeruginosa [27] = assay: Potentiation of chloramphenicol-induced antibacterial activity against Pseudomonas aeruginosa ATCC 27853 assessed as concentration required to restore 2 ug/ml chloramphenicol activity measured after 18 hrs; assay type: functional
Escherichia coli [28] = assay: Potentiation of chloramphenicol-induced antibacterial activity against Escherichia coli ATCC 25922 assessed as concentration required to restore 2 ug/ml chloramphenicol activity measured after 18 hrs; assay type: functional
Staphylococcus aureus [29] = assay: Induction of membrane depolarization in Staphylococcus aureus ATCC 25923 measured after 15 mins by DiSC3(5) dye based spectrofluorometric method; assay type: functional, organism-based
Pseudomonas aeruginosa [30] = assay: Disruption of membrane integrity in Pseudomonas aeruginosa PAO1 assessed as decrease in intracellular ATP level at 10 ug/ml by luciferin-luciferase reagent based luminescence assay relative to control; assay type: functional; set-up: scale not given: the % may be the effect or the level left
Staphylococcus aureus [31] = assay: Induction of membrane depolarization in Staphylococcus aureus ATCC 25923 at 10.4 uM measured after 15 mins by DiSC3(5) dye based spectrofluorometric method; assay type: functional, organism-based
Pseudomonas aeruginosa [32] = assay: Induction of membrane depolarization in Pseudomonas aeruginosa PAO1 at 10.4 uM measured after 15 mins by DiSC3(5) dye based spectrofluorometric method; assay type: functional, organism-based
Pseudomonas aeruginosa [33] = assay: Disruption of membrane integrity in Pseudomonas aeruginosa PAO1 assessed as increase in extracellular ATP level by luciferin-luciferase reagent based luminescence assay; assay type: functional, organism-based
Staphylococcus aureus [34] = assay: Disruption of membrane integrity in Staphylococcus aureus ATCC 25923 assessed as increase in extracellular ATP level by luciferin-luciferase reagent based luminescence assay; assay type: functional, organism-based
Klebsiella pneumoniae [35] = assay: Potentiation of doxycycline-induced antibacterial activity against Klebsiella pneumoniae ATCC 700603 assessed as concentration required to restore 2 ug/ml doxycycline activity measured after 18 hrs; assay type: functional
Escherichia coli [36] = assay: Potentiation of doxycycline-induced antibacterial activity against Escherichia coli ATCC 25922 assessed as concentration required to restore 2 ug/ml doxycycline activity measured after 18 hrs; assay type: functional
Acinetobacter baumannii [37] = assay: Potentiation of doxycycline-induced antibacterial activity against Acinetobacter baumannii ATCC 19606 assessed as concentration required to restore 2 ug/ml doxycycline activity measured after 18 hrs; assay type: functional, ATCC 19606 = CIP 70.34 = JCM 6841
Pseudomonas aeruginosa [38] = assay: Disruption of membrane integrity in Pseudomonas aeruginosa PAO1 assessed as decrease in intracellular ATP level at 1% by luciferin-luciferase reagent based luminescence assay relative to control; assay type: functional, organism-based; set-up: scale not given: the % may be the effect or the level left
Staphylococcus aureus [39] = assay: Disruption of membrane integrity in Staphylococcus aureus ATCC 25923 assessed as increase in extracellular ATP level at 10 uL by luciferin-luciferase reagent based luminescence assay; assay type: functional, organism-based
Pseudomonas aeruginosa [40] = assay: Disruption of membrane integrity in Pseudomonas aeruginosa PAO1 assessed as increase in extracellular ATP level at 10 uL by luciferin-luciferase reagent based luminescence assay; assay type: functional, organism-based

| Compound | MIC (Acinetobacter baumannii [1]) | Activity (Pseudomonas aeruginosa [2]) | MIC (Klebsiella pneumoniae [3]) | CC50 at 20 h [4] | MIC (Cryptococcus neoformans [5]) | MIC (Pseudomonas aeruginosa [6]) | Activity (Acinetobacter baumannii [7]) | Activity (Klebsiella pneumoniae [8]) | MIC (Candida albicans [9]) | Activity (Erythrocyte [10]) | MIC (Staphylococcus aureus [11]) | MIC (Escherichia coli [12]) | HC10 (Erythrocyte [13]) | MIC [15] | other results |
| --- | --- | --- | --- | --- | --- | --- | --- | --- | --- | --- | --- | --- | --- | --- | --- |
| O=C(NCCCNCCCCCCCNCCCNC(=O)C(=O)c1c[nH]c2cc(Br)ccc12)C(=O)c1c[nH]c2cc(Br)ccc12.O=C(O)C(F)(F)F.O=C(O)C(F)(F)F | > 33 µM | 12.9 µM | > 33 µM | 10.6 µM | > 33 µM | 51.4 µM | inactive | inactive | 16.5 µM | Non-Toxic | 6.4 µM | 51.4 µM | > 33 µM |  | IC50 (L6): 4.4 µM; Activity (Cryptococcus neoformans [14]): inactive |
| CC/C(=C(\c1ccccc1)c1ccc(OCCN(C)C)cc1)c1ccccc1 [TAMOXIFEN] |  |  |  |  |  |  |  |  |  |  |  |  |  |  | IC50 (HEK293): 24 µM |
| O=C(NCCCCNCCCNC(=O)C(=O)c1c[nH]c2cc(Br)ccc12)C(=O)c1c[nH]c2cc(Br)ccc12 | > 50 µM | >200 µM | > 50 µM | 2.32 µM | 50 µM (≈ 32.3 µg/mL) | 50 µM (≈ 32.3 µg/mL) | inactive | inactive | > 50 µM | Non-Toxic | 3.12 µM (≈ 2.02 µg/mL) | > 200 µM | > 50 µM | 3.12 µM (≈ 2.02 µg/mL) | IC50 (L6): 8.7 µM; Activity (Candida albicans [16]): inactive |
| CC[C@H]1OC(=O)[C@H](C)[C@@H](O[C@H]2C[C@@](C)(OC)[C@@H](O)[C@H](C)O2)[C@H](C)[C@@H](O[C@@H]2O[C@H](C)C[C@H](N(C)C)[C@H]2O)[C@](C)(O)C[C@@H](C)C(=O)[C@H](C)[C@@H](O)[C@]1(C)O [ERYTHROMYCIN] | 200 µM (≈ 147 µg/mL) |  | > 200 µM |  |  | > 200 µM |  |  |  |  |  | > 200 µM |  |  | Activity (Klebsiella pneumoniae [17]): 50 µM; Activity (Escherichia coli [18]): 50 µM; Activity (Pseudomonas aeruginosa [19]): 200 µM; Activity (Acinetobacter baumannii [20]): 25 µM |
| CCn1cc(C(=O)O)c(=O)c2ccc(C)nc21 [NALIDIXIC ACID] | > 200 µM |  | 100 µM (≈ 23.2 µg/mL) |  |  | > 200 µM |  |  |  |  |  | > 200 µM |  |  | Activity (Klebsiella pneumoniae [21]): 25 µM; Activity (Pseudomonas aeruginosa [22]): 50 µM; Activity (Escherichia coli [23]): >200 µM; Activity (Acinetobacter baumannii [24]): 200 µM |
| O=C(N[C@H](CO)[C@H](O)c1ccc([N+](=O)[O-])cc1)C(Cl)Cl [CHLORAMPHENICOL] | > 200 µM |  | 50 µM (≈ 16.2 µg/mL) |  |  | > 200 µM |  |  |  |  | 1.5 to 3 µM (≈ 0.485 to 0.969 µg/mL) | > 200 µM |  | 3 to 6 µM (≈ 0.969 to 1.94 µg/mL) | Activity (Klebsiella pneumoniae [25]): 200 µM; Activity (Acinetobacter baumannii [26]): >200 µM; Activity (Pseudomonas aeruginosa [27]): >200 µM; Activity (Escherichia coli [28]): >200 µM |
| CC(C)[C@@H](CC[C@@H](C)[C@H]1CC[C@H]2[C@@H]3[C@H](O)C[C@H]4C[C@@H](NCCCNCCCCN)CC[C@]4(C)[C@H]3CC[C@]12C)OS(=O)(=O)O |  |  |  |  |  |  |  |  |  |  |  |  |  |  | Activity (Staphylococcus aureus [29]): Dose-dependent effect |
| O=C(NCCCNCCCCNCCCNC(=O)C(=O)c1c[nH]c2cc(Br)ccc12)C(=O)c1c[nH]c2cc(Br)ccc12 | > 34 µM | 6.25 µM | > 34 µM | 5.06 µM | 1.1 µM (≈ 0.773 µg/mL) | 100 µM (≈ 70.2 µg/mL) | inactive | inactive | 17.2 µM (≈ 12.1 µg/mL) | Non-Toxic | 6.25 µM (≈ 4.39 µg/mL) | 100 µM (≈ 70.2 µg/mL) | > 34 µM | 3.12 µM (≈ 2.2 µg/mL) | Activity (Pseudomonas aeruginosa [30]): 10%; Activity (Staphylococcus aureus [31]): Active; Activity (Pseudomonas aeruginosa [32]): Active; Activity (Pseudomonas aeruginosa [33]): Dose-dependent effect; Activity (Staphylococcus aureus [29]): Dose-dependent effect; Activity (Staphylococcus aureus [34]): Dose-dependent effect |
| C[C@H]1c2cccc(O)c2C(=O)C2=C(O)[C@]3(O)C(=O)C(C(N)=O)=C(O)[C@@H](N(C)C)[C@@H]3[C@@H](O)[C@@H]21.O [DOXYCYCLINE] | 12.5 µM | 12.5 µM | 25 µM |  |  | 25 µM |  |  |  |  |  | 50 µM |  |  | Activity (Klebsiella pneumoniae [35]): 6.25 µM; Activity (Escherichia coli [36]): 6.25 µM; Activity (Acinetobacter baumannii [37]): 25 µM |
| Cetyl trimethylammonium bromide |  |  |  |  |  |  |  |  |  |  |  |  |  |  | Activity (Pseudomonas aeruginosa [38]): 10%; Activity (Staphylococcus aureus [39]): Active; Activity (Pseudomonas aeruginosa [40]): Active |
